# Patent publication US7812044B2, “Anticancer agents” (Takeda Pharmaceutical Company Limited, priority 2001, dated 2010)
# How the values were obtained:
# STAT3 [1] = test: Phosphorylation after EGF stimulation of LNCaP cells, each concentration of compound; format: cell-based; details: EGF 1 ng/ml, compound 10^-6 M, 5x10^-6 M, 10x10^-6 M
# [2] = tested on: LNCaP (androgen receptor positive cell line derived from metastasis of prostate cancer); test: Cell number of LNCaP prostate cancer cells 5 days after addition of EGF and compound; format: cell-based; details: serum free, 10^-6 M compound plus EGF
# Description: Prostate cancer cells, LNCaP (androgen receptor positive cell line derived from metastasis of prostate cancer) were seeded on a dish (1×10^5 cells/dish), and cultured for 24 hours under serum free conditions. Then, EGF and Compound B were added, and 5 days after, the number of cells was counted [FIG. 2].
# [3] = tested on: DU-145 (androgen receptor negative cell line derived from metastasis of prostate cancer); test: Cell number of DU-145 prostate cancer cells 5 days after addition of EGF and compound; format: cell-based; details: DU-145, serum free, 10^-6 M compound plus EGF
# Description: Prostate cancer cells, DU-145 (androgen receptor negative cell line derived from metastasis of prostate cancer) were seeded on a 6-well dish (1×10^5 cells/well), and cultured for 24 hours under serum free conditions. Then, EGF and 2-ethoxy-1-[[2′-(1H-tetrazol-5-yl)biphenyl-4-yl]methyl]benzimidazole-7-carboxylic acid (Compound B) were added, and 5 days after, the number of cells was counted with a hematocytometer [FIG. 1].
# MAPK [4] = test: Phosphorylation of MAPK in LNCaP cells stimulated with IL-6; format: cell-based; details: IL-6 25 ng/ml, compound 10^-6 M, 5x10^-6 M, 10x10^-6 M
# Description: (3) LNCaP cells (10^7 cells) were cultured in a serum-free culture medium (F-12+1 mg/ml BSA) for 24 hours, IL-6: 25 ng/ml and each concentration of Compound B (10^−6 M, 5×10^−6 M, 10×10^−6 M) were added, and phosphorylation of MAPK was investigated.
# MAPK [5] = test: Phosphorylation of MAPK in LNCaP cells stimulated with EGF; format: cell-based; details: EGF 1 ng/ml, compound 10^-6 M added 30 minutes before
# Description: (1) LNCaP cells (10^7 cells) were cultured in a serum-free culture medium (F-12+1 mg/ml BSA) for 24 hours, each concentration of EGF and Compound B (10^−6 M) were added, and phosphorylation of MAPK was investigated.
# DU145 cells = test: Tumor growth of subcutaneous DU145 tumor in nude mouse, compound in drinking water; format: in vivo, nude mouse (Balb/c)
# Description: To a male 4 week-old nude mouse (Balb/c), 5×10^6 DU145 cells were subcutaneously injected on a back. After 10 days, when tumor having a diameter of 5 mm was formed (week 0), Candesartan cilexetil (Compound C) was mixed into drinking water so that Compound C could be orally taken at a dosage of 5 mg/kg day or 2.5 mg/kg day (each group: n=5). As a control group, a group (n=5) receiving no Compound C was bred at the same time. Initiation of the oral administration was regarded as week 0, each group was bred for 4 weeks, and a diameter of tumor was measured every week.
# [6] = tested on: microvessels in DU145 tumor; test: Number of microvessels in DU145 tumor of nude mouse, anti-CD31 staining; format: in vivo, nude mouse (Balb/c); details: 5 mg/kg/day orally, 4 weeks, magnification 400; control 72.5±9.7, P<0.02
# Description: To a male 4 week old nude mouse (Balb/c), 5×10^6 DU145 cells were subcutaneously injected on a back. After 10 days, when tumor having a diameter of 5 mm was formed (0 week), Candesartan cilexetil (Compound C) was mixed into drinking water (each group: n=3) so that Compound C could be orally taken the an amount of 5 mg/kg/day. As a control group, a group (n=3) receiving no Compound C was bred at the same time. Initiation of the oral administration was regarded as week 0, each group was bred for 4 weeks, and thereafter, tumor was isolated, stained with an anti-CD31 antibody as described hereinafter, and the number of microvessels in tumor was examined. Under a microscope (magnification 400), four places rich in the number of microvessels were selected from a tumor solid tissue part, and the number was counted. The results are shown in [FIG. 7]. Average 72.5±9.7 vessels were recognized in one field in case of the control group, and average 37.5±3.3 vessels were recognized in one field in case of the Compound C-administered group and, thus, a significant difference was recognized between both groups (P<0.02).
# Vessels in a tumor-transplanted tissue of a nude mouse were immunologically stained using an anti-mouse CD31 antibody, and the number of vessels and vascularization state were studied. Procedures were as follows: […]
# [7] = tested on: tyrosine phosphorylation of cellular proteins in LNCaP cells; test: Tyrosine phosphorylation of cellular proteins in LNCaP cells, Western blotting with anti-phospho-tyrosine antibody; format: cell-based; details: 24 h no serum, angiotensin II 1x10^-6 M or EGF 1 ng/ml, 5 minutes
# Description: It is already known that, when growth stimulation such as EGF is applied to cells, phosphorylation of cellular proteins is induced by activation of signal transduction pathway. Then, in order to make clear the effect of angiotensin II on prostate cancer, prostate cancer LNCaP cells were cultured for 24 hours with no serum stimulation, and then, the culture was stimulated with angiotensin II (1×10^−6 M) or EGF (1 ng/ml) which was already known to have growth promoting effect, and 5 minutes after, cells were collected. The whole cell lysate separated by SDS-PAGE, transferred onto a PVDF membrane, and then tyrosine phosphorylation of an cellular protein was observed by Western blotting method using an anti-phospho-tyrosine antibody (Upstate, 10 Old Barn Road Lake Placid, N.Y. 12946 U.S.A.) [FIG. 3]. […] That is, it is considered that stimulation with angiotensin II has the same or similar effect as that of stimulation with EGF on prostate cancer cells.
# MAP kinase = test: Activated MAP kinase in LNCaP cells, Western blotting with anti-phospho-MAP kinase antibody; format: cell-based; details: 24 h no serum, angiotensin II 1x10^-6 M or EGF 1 ng/ml
# Description: In order to make clear the effect of angiotensin II on MAP kinase which is one of cellular proteins controlling cell growth, prostate cancer LNCaP cells were cultured for 24 hours with no serum stimulation, and then, stimulated with angiotensin II (1×10^−6 M) or EGF (1 ng/ml) already known to have growth promoting effect, and cells were collected at an appropriate time. The whole cell lysate was separated by SDS-PAGE, and then, transferred onto a PVDF membrane, and a total amount of cellular activated MAP kinase and MAP kinase was measured by Western blotting method using an anti-phospho-MAP kinase antibody which recognizes only activated MAP kinase (Cell Signaling Technology, 166B Cumming Center Beverly, Mass. 01915 U.S.A.: in FIG. 4, WB: PMAPK), and a MAP kinase antibody which recognizes all endogenous MAP kinases (Cell Signaling Technology, 166B Cumming Center Beverly, Mass. 01915 U.S.A.: in FIG. 4, WB: MAPK) [FIG. 4]. […] That is, it has been apparent that MAP kinase controlling cell growth is activated by stimulation of angiotensin II.
# STAT3 [8] = test: Activated STAT3 in LNCaP cells, Western blotting with anti-phospho-STAT3 (Tyr705) antibody; format: cell-based; details: 24 h no serum, angiotensin II 1x10^-6 M or EGF 1 ng/ml
# Description: In order to make clear the effect of angiotensin II on an cellular protein STAT3 which is one of signal transducing molecules of a growth factor and a cytokine and is said to be involved in cell growth, prostate cancer LNCaP cells were cultured for 24 hours with no serum stimulation, and then, stimulated with angiotensin II (1×10^−6 M) or EGF (1 ng/ml) already known to have growth promoting effect, and cells were collected at an appropriate time. The whole cell lysate was separated by SDS-PAGE, and then, transferred onto a PVDF membrane. Activated STAT3 and a total amount of STAT3 were confirmed by Western blotting method using an anti-phospho-STAT3 (Tyr705) antibody which recognizes only activated STAT3 (Cell Signaling Technology, 166B Cumming Center Beverly, Mass. 01915 U.S.A.: in FIG. 5, WB: PSTAT3), and a STAT3 antibody which recognizes all endogenous STAT3s (Cell Signaling Technology, 166B Cumming Center Beverly, Mass. 01915 U.S.A.: in FIG. 5, WB: STAT3) [FIG. 5]. […] That is, it has been apparent that STAT3 controlling cell growth is activated by stimulation with angiotensin II.
compound,measurement,setting,value
"CCOc1nc2cccc(C(=O)O)c2n1Cc1ccc(-c2ccccc2-c2nnn[nH]2)cc1 [Compound B, 2-ethoxy-1-[[2′-(1H-tetrazol-5-yl)biphenyl-4-yl]methyl]benzimidazole-7-carboxylic acid]",phosphorylation of STAT3 by EGF stimulation,STAT3 [1],inhibited in a Compound B dose dependant manner
same,reduction of the number of cells as compared with stimulation with EGF alone,[2],about 22%
same,reduction of the number of cells as compared with stimulation with EGF alone,[3],about 12%
same,phosphorylation of MAPK by IL-6,MAPK [4],inhibited in a Compound B dose dependent manner
same,phosphorylation of MAPK by EGF stimulation,MAPK [5],phosphorylation was inhibited
"CCOc1nc2cccc(C(=O)OC(C)OC(=O)OC3CCCCC3)c2n1Cc1ccc(-c2ccccc2-c2nnn[nH]2)cc1 (centres unmarked) [Compound C, 1-(cyclohexyloxycarbonyloxy)ethyl 2-ethoxy-1-[[2′-(1H-tetrazol-5-yl)biphenyl-4-yl]methyl]benzimidazole-7-carboxylate]",growth inhibition as compared with the control group,"DU145 cells; 5 mg/kg/day orally, in and after week 2",significant difference of P<0.01
same,tumor growth (diameter of tumor),"DU145 cells; 5 or 2.5 mg/kg/day orally in drinking water, from week 2, 4 weeks",inhibition of tumor growth was observed
same,"number of microvessels in tumor, average vessels in one field",[6],37.5±3.3 vessels
EGF: growth factor already known to have growth promoting effect,tyrosine phosphorylation of cellular proteins,[7],tyrosine phosphorylation was induced
same,activated MAP kinase (WB: PMAPK),MAP kinase,activated MAP kinase was increased
same,activated STAT3 (WB: PSTAT3),STAT3 [8],activated STAT3 was increased
"angiotensin II: stimulant of LNCaP cells acting on the angiotensin II receptor AT1 (DRVYIHPF; Angiotensin-2; UniProt P01019 25-32, looked up)",tyrosine phosphorylation of cellular proteins,[7],tyrosine phosphorylation of the same protein by stimulation with angiotensin II was also observed
same,activated MAP kinase (WB: PMAPK),MAP kinase,activated MAP kinase was increased
same,activated STAT3 (WB: PSTAT3),STAT3 [8],activated STAT3 was increased
